Measurements: patent US6867235B2, “Helianthrone derivatives as anti-cancer agents” (Yeda Research and Development Co. Ltd., priority 2000, dated 2005)

Tests used:
[1] = tested on: rat aorta rings, endothelial cell microvessels; assay: Rat aorta ring microvessel formation in fibrin gel; type: cell-based; details: 0.1-10 μg/ml (0.2-20 μM)
From the text: Rat aorta is carved into rings which are embedded in fibrin gels and cultured in MCDB 131 medium. Endothelial cells that detach from the aorta rings generate branching microvessels according to a method previously described (Nicosia R. F. and Ottinetti A. Growth of microvessels in serum-free matrix culture of rat aorta. Laboratory Investigation 63: 115, 1990).

tumor neovascularization = assay: Tumor neovascularization in tumor-bearing mice; details: mouse, in vivo
From the text: These hitherto unknown attributes were detected while studying the effects of hypericin and of helianthrone derivatives on breast adenocarcinoma tumors induced in mice with the DA-3^HI cell line and on murine anaplastic squamous carcinoma tumors induced with the SQ-2 cell line. Both are highly metastatic tumors and if surgically resected after having reached a diameter larger than 5 mm, the mice will go on to develop metastases in the lungs and liver. The metastases cause death of the animals within approximately two months following surgery.
By preventing development of new blood vessels to supply a growing metastasis, the rapidly growing metastatic focus is deprived of nutrients and oxygen for its rapidly multiplying cells and the lesion degenerates.

[2] = tested on: heparanase-induced angiogenesis; assay: Heparanase-induced angiogenesis in the anterior chamber of the rat eye; type: in vivo, rats; details: four i.p. injections of 750 μg, 5 days after heparanase
Description: Four rats (250 g each) were given three intraperitoneal injections of hypericin (750 μg per dose in 5 ml water containing 3.5% ethanol) at four day intervals. The following day the animals were anesthetized with xylazine-ketamine and angiogenesis (formation of new blood vessels) was induced by inoculating 2 μl heparanase (30 μg/ml) into the frontal compartment of the eye in the cornea of one of the two eyes in each rat. A fourth intraperitoneal injections of 750 μg hypericin was applied the next day. Two positive control animals received only 2 μl heparanase (30 μg/ml) into the frontal compartment of the eye. Angiogenesis was then allowed to develop for 5 days at which time animals were anesthetized with xylazine-ketamine and examined and photographed under a binocular microscope for development of blood vessels in the anterior chamber of the eye.

[3] = tested on: U251 human glioblastoma cells; type: cell-based; details: glioblastoma cells in culture, complete darkness
Description: Human HL-60 leukemic cells were grown in RPMI-1640 supplemented with 15% fetal calf serum, […] and 100 units/ml penicillin-streptomycin. Human erythroleukemia K-562 cells (derived from a chronic myeloid leukemia pateient) were grown in the same medium supplemented with 10% fetal calf serum. These cells and the human U251 glioblastoma, U87MG glioblastoma and LAN5 neuroblastoma cells used in the experiments are available from the ATCC. All cell lines were cultured in a humidified 5% CO2/95% air atmosphere at 37° C.
Cell viability was monitored by the MTT assay which measures reduction of 3-(4,5-dimethylthiazol-2-yl)-2,5-diphenyl tetrazolium bromide to formasan by mitochondria of viable cells as described in Mossman, T., J. Immunogen., 21, 235-248 (1983). The cells are incubated with MTT for four hours at 37° C. and analyzed in an ELISA reader at 560 nm. The optical density of formasan generated by untreated cell cultures (O.D. control) is defined as one MTT unit. The number of MTT units in culture samples undergoing treatments is calculated as the ratio (O.D.sample−O.D.blank)/O.D.control).
Three human malignant cell lines were evaluated to sensitivity to dimethyl TMH in vitro. […] The medium was aspirated, the adherent monolayer was washed with phosphate-buffered saline, and cell viability was monitored by the MTI assay. […]

[4] = tested on: DA-3HI metastatic lesions; assay: Morphology of metastatic lesions after resection of DA-3HI tumors; type: in vivo, BALB/c mice; details: 5 doses of 200 μg/mouse at 5 day intervals, two months after surgery
Description: In an effort to understand how hypericin prevents the growth of metastases the experiment was repeated and the morphology of the metastatic lesions then followed. Primary DA-3^HI tumors were induced in BALB/c mice. Surgery was conducted on the tumors when diameters reached 8-10 mm. These mice (17 animals) were divided into two groups, one treated with 5 doses of hypericin 200 μg/mouse at 5 day intervals as previously described (9 animals) and another group served as untreated control (8 mice). The animals were grown for two more months. The mice were then sacrificed and the internal organs examined for metastatic lesions. […] This was evident only when hypericin injections were initiated very early prior to the resection of the primary tumor. These observations indicate that hypericin inhibits angiogenesis (growth of new vasculature). […] Since angiogenesis is primarily mediated by vascular endothelium growth factor (VEGF), hypericin may interfere with either the formation or secretion of VEGF from tumor cells or with its targeting of growth inducing receptors on vascular endothelial cells. […] Interference with the signal transduction pathway that culminates in the production of VEGF might be the mechanism for hypericin or helianthrone derivative-mediated inhibition of the VEGF effect that results in inhibition of metastatic lesion growth.

[5] = tested on: DA-3HI induced breast adenocarcinoma tumors; assay: Survival after resection of DA-3HI breast adenocarcinoma tumors with hypericin; type: in vivo, BALB/c mice; details: for survival rate: 5 days apart
Description: The primary tumor size at which metastases occur in DA-3^HI-derived breast adenocarcinoma tumors was initially calibrated in BALB/c mice inoculated with 5×10^5 DA-3^HI tumor cells intradermally. […] If the resection was performed on tumors with larger diameters, the mice died of metastases. A diameter of approximately 5 mm appears to be the cutoff at which metastases begin to spread.
DA-3^HI tumors were induced in 12-week old female BALB/c mice as described above. When the tumors reached diameters of 8-10 mm the mice were divided into four groups. One group of 19 mice was left untreated and in the three other groups the tumors were surgically removed. One of the resected groups received two intraperitoneal (i.p.) injections with 200 μg hypericin (HY) each 5 days apart beginning two days prior to surgery (16 mice). Another resected group received five i.p. injections with 200 μg hypericin each, 5 days apart beginning two days prior to surgery (17 mice). One resected group was not treated with hypericin (16 mice). The mice were then followed for survival. […] However, administration of 2 i.p. injections of hypericin increased the survival rate to 35% and administration of 5 hypericin doses increased the survival rate to 60%.

[6] = tested on: SQ2 squamous cell carcinoma tumors; assay: Survival after resection of SQ2 squamous cell carcinoma tumors with hypericin; type: in vivo, BALB/c mice; details: for mice alive beyond 240 days following tumor cell inoculation: resection
Description: In another set of experiments squamous cell carcinoma tumors were generated in BALB/c mice by inoculating 5×10^5 SQ2 cells per mouse. When the tumors reached a diameter of 1.0-1.2 cm in diameter they were removed by surgery (resected). One group of 5 mice also received three i.p injections of hypericin of 100 μg/mouse prior to surgery and two regimens of 50 μg/mouse post surgery at intervals of 5 days between each dosing. Another group of 8 mice received six hypericin i.p. injections of 100 μg/mouse prior to surgery and five regimens of 50 μg/mouse post surgery at intervals 5 days apart. One control group of 17 mice underwent surgery only without treatments with hypericin and another control group remained untreated (22 mice). Animal survival was then followed.

Compound | formation of organized microvessels [1] | neovascularization of tumors (tumor neovascularization) | blood vessels in the anterior chamber of the eye [2] | effect on the cultures at doses at which dimethyl-TMH kills cells [3] | appearance of metastatic lesions in internal organs [4] | inhibition of the primary tumor ([5]; DA-3HI breast adenocarcinoma tumors) | survival rate ([5]; day 89, resection plus 2 i.p. injections of 200 μg) [%] | survival rate ([5]; day 89, resection plus 5 i.p. injections of 200 μg) [%] | inhibition of the primary tumor ([6]; SQ-2 anaplastic squamous carcinoma tumors) | mice alive beyond 240 days following tumor cell inoculation ([6]; six i.p. injections 100 μg/mouse prior to surgery, five of 50 μg/mouse post surgery) [%] | mice alive beyond 240 days following tumor cell inoculation ([6]; three i.p. injections 100 μg/mouse prior to surgery, two of 50 μg/mouse post surgery) [%] | protection rates due to hypericin administration ([6]; versus surgery only)
Cc1ccc2c(=O)c3c(O)cc(O)c4c5c(O)cc(O)c6c(=O)c7ccc(C)cc7c(c65)c(c2c1)c34 [dimethyl tetrahydroxyhelianthrone, 10,13-dimethyl-1,3,4,6-tetrahydroxyhelianthrone] | inhibition of formation of the organized microvessels | prevented neovascularization | – | – | – | – | – | – | – | – | – | –
Cc1cc(O)c2c(=O)c3c(O)cc(O)c4c5c(O)cc(O)c6c(=O)c7c(O)cc(C)c8c1c2c(c34)c(c78)c65 [hypericin] | inhibition of formation of the organized microvessels | prevented neovascularization | absence of blood vessels | no effect | much smaller, somewhat more necrotic and devoid of such vasculature | not inhibited | 35 | 60 | not inhibited | 40 | 60 | 20-40%
